{
  "source": "patent US12383593B2",
  "about": "“Organic pain relief and hair growth composition” (The Tao Talit Corporation, priority 2021, dated 2025)",
  "origin": "cited, not measured here",
  "key": {"orofacial nociception": {"system": "orofacial nociception", "conditions": "in comparison with S. lavandulifolia essential oil"}, "[1]": {"system": "capsaicin irritancy, sprains, heat hypersensitivity and headaches"}, "[2]": {"system": "MAPKs and the NF-κB pathway", "conditions": "mouse peritoneal macrophages"}},
  "data": [
    {"smiles": "Cc1ccc(C(C)C)cc1", "note": "[p-Cymene]", "values": [
      {"measurement": "solubility in organic solvents", "value": "miscible"},
      {"measurement": "solubility in water", "value": "insoluble"}
    ]},
    {"smiles": "C=C(C)[C@H]1CC=C(C)CC1", "note": "[limonene, Limonene]", "values": [
      {"measurement": "action on a lymphoma cell line", "setting": "lymphoma cell line; lymphoma cell line", "value": "anti-proliferative action"},
      {"measurement": "normal lymphocyte viability", "setting": "lymphoma cell line; normal lymphocytes", "value": "without modifying normal lymphocyte viability"}
    ]},
    {"smiles": "CC(C)=CCCC(C)(O)C1CC=C(C)CC1", "note": "(stereo not drawn) [(−)-α-bisabolol, 6-methyl-2-(4-methylcyclohex-3-en-1-yl)-hept-5-en-2-ol]", "values": [
      {"measurement": "solubility in ethanol", "setting": "ethanol", "value": "soluble"},
      {"measurement": "solubility in water and glycerin", "setting": "water and glycerin", "value": "poorly soluble"},
      {"measurement": "antinociceptive effect in the pain models", "setting": "orofacial nociception", "value": "stronger effect"}
    ]},
    {"smiles": "CC1CCC(C(C)C)C(O)C1", "note": "(stereo not drawn) [menthol, Menthol]", "values": [
      {"measurement": "cold allodynia and hyperalgesia", "setting": "[1]; high concentrations, topical use or intraplantar injection", "value": "generated cold allodynia and hyperalgesia"},
      {"measurement": "analgesic effect of topically applied menthol", "setting": "[1]; low to moderate concentrations, topical", "value": "inhibit capsaicin irritancy, sprains, heat hypersensitivity and headaches"}
    ]},
    {"smiles": "C=C1C2CCC(C2)C1(C)C", "note": "(stereo not drawn) [Camphene]", "values": [
      {"measurement": "solubility in organic solvents", "value": "very soluble"},
      {"measurement": "solubility in water", "value": "nearly insoluble"}
    ]},
    {"smiles": "CC1=CCC2CC1C2(C)C", "note": "(stereo not drawn) [Alpha-pinene, α-pinene]", "values": [
      {"measurement": "anti-inflammatory activity", "setting": "[2]", "value": "anti-inflammatory activity through the suppression of mitogen-activated protein kinases (MAPKs) and the nuclear factor-kappa B (NF-κB) pathway"}
    ]}
  ]
}
